Test system: biotinylated HRP
Assay: Model system for selection of SSIA (AK1/streptavidin BSA microparticles + biotinylated HRP)
Format: biochemical, horseradish
Details: Btn-HRP 0 ng/mL, total HRP 500 ng/mL; SSIA 100 μM final
Description: The model system uses a microparticle conjugated to BSA (bovine serum albumin) labeled with a […] and acridan ketenedithioacetal chemiluminescent label (AK1) as the chemiluminescent-labeled sbp, and biotinylated HRP as the activator-labeled specific binding pair. In the model system, varying amounts of Btn-HRP is added to the chemiluminescent-labeled specific binding pair at 0, 1, 10, 100 and 250 ng/mL. Additional unlabeled HRP is added to reach a total HRP of concentration of 500 ng/mL in each reaction mixture. The unlabeled HRP in combination with the activator-labeled sbp was provided to the chemiluminescent-labeled sbp microparticles to emulate sample. A compound for assessment as an SSIA was also added. This reaction mixture of the model system is then triggered by addition of trigger solution in a manner of assays of the present disclosure.
To prepare the chemiluminescent-labeled sbp on microparticles, Bovine Serum Albumin (BSA) was biotinylated with 4× molar excess of biotin-LC-sulfoNHS (Pierce Biotechnology Inc., Rockford, Ill., USA). Unbound reactants were removed via desalting or dialysis. The biotin-BSA was then reacted with a 5× molar excess of an NHS ester of acridan ketenedithioacetal AK1 in 20 mM sodium phosphate pH 7.2: DMSO 75:25, v/v) followed by desalting in the same buffer. The dual labeled (biotin and AK1) BSA was then coupled with tosyl activated M280 microparticles (Invitrogen Corporation, Carlsbad, Calif., USA) in a 0.1M borate buffer pH 9.5 at a concentration of about 20 μg of labeled BSA per mg of microparticles for 16-24 h at 40° C. After coupling the microparticles were stripped for 1 h at 40° C. with 0.2 M TRIS base, 2% SDS, pH˜11. The stripping process was repeated one additional time. Microparticles were then suspended in a 0.1% BSA/TRIS buffered saline (BSA/TBS) buffer and streptavidin (SA) was added at approximately 15 μg SA per mg microparticles. Streptavidin was mixed with the microparticles for 45-50 min at room temperature. The microparticles were then washed three times and suspended in the same BSA/TBS.
HRP, (Roche Diagnostics, Indianapolis, Ind., USA) was biotinylated with 4× molar excess of biotin-LC-sulfoNHS (Pierce Biotechnology Inc., Rockford, Ill., USA). Alternatively, 25× molar excess of biotin-PEO4-NHS may be used. Unbound reactants were removed via desalting or dialysis.
Each SSIA compound for assessment was solubilized in Buffer II at a concentration at least 10× of the working strength concentration.
25 μl of 1 mg/ml of dual-labeled (biotin and AK1) BSA M280 particles were mixed with 45 μl of working concentration SSIA in Buffer II. The assay volume brought to 85 μl by adding 15 μl of Buffer II. 15 μl of sample containing Btn-HRP:HRP at different ratios (The amount of biotinylated-HRP varied from 0, 1, 10, 100 and 250 ng/mL) was added. The reaction mixture was incubated for 30 min at 37° C., then 100 μL of trigger solution was added and the light intensity recorded. Total volume of reaction mixture, including trigger solution was 200 μL with a final concentration of 100 μM of SSIA.
The screening tests were performed using a modified DxI® Immunoassay System (Beckman Coulter, Inc. Brea, Calif.) as described above.

With N[C@@H](CCC(=O)N[C@@H](CS)C(=O)NCC(=O)O)C(=O)O [Glutathione] the “light intensity, BTN-HRP0” value was 26,977.

Same assay, conditions: Btn-HRP 1 ng/mL vs 0; SSIA 100 μM final

In the case of N[C@@H](CCC(=O)N[C@@H](CS)C(=O)NCC(=O)O)C(=O)O [Glutathione], the S1/S0 is reported as 2.1.

Same assay, conditions: Btn-HRP 1 ng/mL, total HRP 500 ng/mL; SSIA 100 μM final

With N[C@@H](CCC(=O)N[C@@H](CS)C(=O)NCC(=O)O)C(=O)O [Glutathione] the “light intensity, BTN-HRP1” value was 55,719.

Same assay, conditions: Btn-HRP 10 ng/mL vs 0; SSIA 100 μM final

In the case of N[C@@H](CCC(=O)N[C@@H](CS)C(=O)NCC(=O)O)C(=O)O [Glutathione], the S2/S0 is reported as 92.

Same assay, conditions: Btn-HRP 10 ng/mL, total HRP 500 ng/mL; SSIA 100 μM final

In the case of N[C@@H](CCC(=O)N[C@@H](CS)C(=O)NCC(=O)O)C(=O)O [Glutathione], the “light intensity, BTN-HRP10” value is reported as 2,480,764.

Same assay, conditions: Btn-HRP 100 ng/mL vs 0; SSIA 100 μM final

N[C@@H](CCC(=O)N[C@@H](CS)C(=O)NCC(=O)O)C(=O)O [Glutathione] gave an S3/S0 of 323.7.

Same assay, conditions: Btn-HRP 100 ng/mL, total HRP 500 ng/mL; SSIA 100 μM final

In the case of N[C@@H](CCC(=O)N[C@@H](CS)C(=O)NCC(=O)O)C(=O)O [Glutathione], the “light intensity, BTN-HRP100” value is reported as 8,733,068.

Same assay, conditions: Btn-HRP 250 ng/mL vs 0; SSIA 100 μM final

N[C@@H](CCC(=O)N[C@@H](CS)C(=O)NCC(=O)O)C(=O)O [Glutathione] gave an S4/S0 of 369.4.

Same assay, conditions: Btn-HRP 250 ng/mL, total HRP 500 ng/mL; SSIA 100 μM final

N[C@@H](CCC(=O)N[C@@H](CS)C(=O)NCC(=O)O)C(=O)O [Glutathione] was tested, and the “light intensity, BTN-HRP250” value was 9,965,235.

Same assay, conditions: SSIA 100 μM final

For N[C@@H](CCC(=O)N[C@@H](CS)C(=O)NCC(=O)O)C(=O)O [Glutathione], the “effectiveness as SSIA in the model system” value was “insuffient effectiveness”.

Test system: PSA
Assay: Screening SSIA by homogeneous PSA immunoassay (anti-PSA-AK1 + anti-PSA-HRP)
Format: biochemical, human
Details: not given
Description: This example presents one method used for testing of candidate compounds for functionality as SSIA in assays of the present disclosure. Testing was conducted in a model screening immunoassay of the protein PSA. Tests were run using a 96-well microtiter plate format. A solution containing 30 μL of mouse anti-PSA-AK1 (66 ng), 30 μL of mouse anti-PSA-HRP conjugate (7.8 ng), 36 μL of human female serum, and 24 μL of PSA calibrator were pipetted into each well. The plate was incubated at 37° C. for 10 minutes. A 5 μL aliquot of the test compound (various concentrations) was added to each well. Chemiluminescence was triggered by the addition of 100 μL of a solution of a trigger solution whose composition is listed below. The chemiluminescent flash was integrated for 5 seconds after the addition of the trigger solution using a Luminoskan Asent® plate luminometer, (Thermo Fischer Scientific, Inc., Waltham, Mass.).
It is desirable that the improvement factor be at least 2 (S5/S0≧ about 20-30) and more desirable that improvement factor be at least 5 (S5/S0≧ about 50), yet more desirable that S5/S0 be ≧100 in the present screen.

Going from OCCO [Ethylene glycol] to c1ccc2c(c1)Cc1ccccc1N2, the S5/S0 rises from 14 to 120.

Same assay, conditions: test compound final conc. 0.030 mM

With Nc1ccc(O)cc1O the S5/S0 was 161.

Same assay, conditions: test compound final conc. 0.031 mM

With O=C1C(O)=C(Cl)C(=O)C(O)=C1Cl the S5/S0 was 7.

Same assay, conditions: test compound final conc. 34 uM

[N-]=[N+]=[N-].[Na+] [NaN3] gave an S5/S0 of 19.

Same assay, conditions: test compound final conc. 0.061 mM (61 uM)

Compared with O=C1C(O)=C(O)C(=O)C(O)=C1O, NNC(=O)c1ccccc1O is lower in S5/S0: 51 for the first, 23 for the second.

Compound Cc1cc(-c2cc(C)c(N)c(C)c2)cc(C)c1N [TMB] has an S5/S0 of 20.

Same assay, conditions: test compound final conc. 72 uM

Compound O[C@@H](CS)[C@@H](O)CS [DTT] has an S5/S0 of 20.

Same assay, conditions: test compound final conc. 0.244 mM (244 uM)

Compared with Nc1cc2ccccc2cc1O, Nc1ccc2ccccc2c1O is higher in S5/S0: 67 for the first, 109 for the second.

Compared with O=S(=O)([O-])CCCOCCCN1c2ccccc2Cc2ccccc21.[Na+], C=CCc1ccc(O)c(OC)c1 is higher in S5/S0: 6 for the first, 30 for the second.

Compared with OB(O)c1cc(Cl)ccc1O, O=C1C=C(O)C(=O)C=C1O is lower in S5/S0: 22 for the first, 14 for the second.

NN [NH2NH2] gave an S5/S0 of 15.

Same assay, conditions: test compound final conc. 1.25 mM

Work on CC1=C(O)C(=O)C(C)O1 (stereo not shown) yielded an S5/S0 of 237.

Same assay, conditions: test compound final conc. 24.4 mM

Nc1ncc[nH]1 was tested, and the S5/S0 was 14.

Same assay, conditions: test compound final conc. 36.7 mM

Work on Cn1ccnc1S yielded an S5/S0 of 102.

Same assay, conditions: test compound final conc. […] ([…]); S5 = 129 ng PSA/mL vs zero PSA

Compared with O=C(O)c1cc(O)c2ccccc2n1, Nc1c(O)ccc2ccccc12 is higher in S5/S0: 6 for the first, 63 for the second.

First: CC1(C)OC(=O)C(O)=C1O
Second: C[C@H]1OC(=O)C(O)=C1O
The S5/S0 of the first is higher: 467 for the first, 423 for the second.

Going from Oc1ccc(O)c(Br)c1 to Cc1ccc(O)c(O)c1, the S5/S0 falls from 570 to 142.

First: Nc1c(O)cc(S(=O)(=O)O)c2ccccc12
Second: Nc1ccccc1O [drawing 97]
The S5/S0 of the first is lower: 65 for the first, 649 for the second.

O=C1O[C@H]([C@@H](O)CO)C(O)=C1O [drawing 128] and O=C1O[C@H]([C@H](O)CO)C(O)=C1O are the same in S5/S0: 10.3 for the first, 10.3 for the second.

First: O=C(O)C1c2ccccc2Oc2ccccc21
Second: c1ccc2c(c1)Cc1ccccc1O2
The S5/S0 of the first is higher: 7 for the first, 4 for the second.

Compared with O=c1c(O)c(-c2ccccc2)oc2ccccc12, O=c1c(O)c(-c2ccccc2)oc2cc(O)ccc12 is higher in S5/S0: 13 for the first, 14 for the second.

First: O=C1O[C@H]([C@@H](O)CO)C(O)=C1O [drawing 89]
Second: O=C1O[C@H]([C@@H](O)CO)C([O-])=C1O.[Na+] [ascorbate sodium salt (ascorbate anion), ascorbate sodium salt]
The S5/S0 of the first is lower: 423 for the first, 495 for the second.

First: Nc1ccccc1B(O)O
Second: Nc1ccccc1S
The S5/S0 of the first is lower: 108 for the first, 234 for the second.

Going from Oc1cccc(O)c1O to O=C(O)c1ccc(O)c(O)c1, the S5/S0 rises from 69 to 178.

Compared with Oc1cccnc1O, COc1ccccc1O is lower in S5/S0: 41 for the first, 13 for the second.

First: Oc1ccc([C@@H]2Oc3cc(O)c(O)cc3C[C@@H]2O)cc1O
Second: O=c1ccc2cc(O)c(O)cc2o1
The S5/S0 of the first is higher: 323 for the first, 105 for the second.

Compared with O=C1O[C@H]([C@@H](O)CO)C(=O)C1=O, O=C1O[C@H]([C@@H](O)CO)C([O-])=C1O.[Na+] is lower in S5/S0: 26 for the first, 9.2 for the second.

Compared with N[C@@H](CS)C(=O)O [L-Cysteine], N[C@@H](CCC(=O)N[C@@H](CS)C(=O)NCC(=O)O)C(=O)O [Glutathione] is higher in S5/S0: 22 for the first, 77 for the second.

First: Nc1ccc(C(=O)O)cc1O [drawing 110]
Second: O=C(O)/C=C/c1ccc(O)c(O)c1
The S5/S0 of the first is higher: 153 for the first, 116 for the second.

Compared with O=C(c1ccccc1)C1c2ccccc2Nc2ccccc21, c1ccc2c(c1)Nc1ccccc1O2 [drawing 87] is higher in S5/S0: 9 for the first, 605 for the second.

Compared with O=C(O)/C(O)=C(/O)C(=O)O, COC1=C(O)C(=O)O[C@@H]1[C@@H](O)CO is lower in S5/S0: 30 for the first, 16 for the second.

Compared with COc1cc(C(C)(C)C)c(O)c(C(C)(C)C)c1, O=c1c(O)c(-c2ccccc2)oc2ccc(O)cc12 is lower in S5/S0: 19 for the first, 9 for the second.

Going from c1ccc2c(c1)Cc1ccccc1S2 to O=c1c2ccccc2[nH]c2ccccc12, the S5/S0 rises from 9 to 14.

Reference: patent publication US9029092B2, “Solution phase homogeneous assays” (Beckman Coulter, Inc., priority 2009, dated 2015)
